Reference: PMC4136671 (Journal of Medicinal Chemistry, 2014)

What was measured:
T. cruzi CYP51 [1] = target: T1, T. cruzi CYP51 (Trypanosoma cruzi, UniProt Q7Z1V1); assay: CYP51 spectral ligand binding assay; conditions: for time course of the amplitude of the type 2 spectral response: T. cruzi CYP51 1.0 μM, 0.2 μM ligand (enzyme in excess)
T. cruzi CYP51 [2] = target: T1, T. cruzi CYP51; assay: CYP51 activity assay; assay type: biochemical; conditions: vs (R)-2; I/E=2, 1 h
Chagas disease = conditions: acute and chronic forms; cited from earlier work

T1 sequence (Q7Z1V1 whole entry): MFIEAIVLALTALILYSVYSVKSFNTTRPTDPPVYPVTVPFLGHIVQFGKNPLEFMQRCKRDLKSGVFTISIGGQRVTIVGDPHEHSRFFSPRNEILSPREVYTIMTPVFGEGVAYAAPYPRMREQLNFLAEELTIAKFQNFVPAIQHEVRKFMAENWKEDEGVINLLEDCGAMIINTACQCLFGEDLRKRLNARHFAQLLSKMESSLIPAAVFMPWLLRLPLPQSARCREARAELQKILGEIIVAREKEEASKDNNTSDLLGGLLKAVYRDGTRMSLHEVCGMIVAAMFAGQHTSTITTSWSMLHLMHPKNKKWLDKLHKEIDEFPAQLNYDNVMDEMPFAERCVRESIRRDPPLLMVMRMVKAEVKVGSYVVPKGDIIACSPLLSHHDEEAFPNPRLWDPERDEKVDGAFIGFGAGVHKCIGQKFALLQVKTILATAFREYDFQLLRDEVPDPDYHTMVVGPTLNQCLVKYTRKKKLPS

## O=C(Nc1ccc(N2CCN(c3ccc(Cl)c(Cl)c3)CC2)cc1)OC(Cn1ccnc1)c1ccc(Cl)cc1Cl (centres unmarked) [Compound 6, 1-(2,4-dichlorophenyl)-2-(1H-imidazol-1-yl)ethyl 4-[4-(3,4-dichlorophenyl)piperazin-1-yl]phenylcarbamate]
T. cruzi CYP51 [1]
  time course of the amplitude of the type 2 spectral response: very slow increase

## CC(C)c1ccc(NC(=O)O[C@H](Cn2ccnc2)c2ccc(Cl)cc2)cc1 [(S)-2, 1-(4-chlorophenyl)-2-(1H-imidazol-1-yl)ethyl-4-isopropylphenylcarbamate]
T. cruzi CYP51 [2]
  inhibitory effect on the substrate conversion, fold stronger than (R)-2: ~50 fold
T. cruzi CYP51 [1]; vs (R)-2
  apparent binding efficiency, fold higher than (R)-2: 2 fold

## CC(=O)N1CCN(c2ccc(OCC3COC(Cn4ccnc4)(c4ccc(Cl)cc4Cl)O3)cc2)CC1 (centres unmarked) [ketoconazole, reference compound]
T. cruzi CYP51 [1]
  time course of the amplitude of the type 2 spectral response: somewhat similar pattern

## O=C(N[C@@H](Cn1ccnc1)c1ccc(Cl)cc1Cl)c1ccc(-c2nnc(-c3ccccc3)o2)cc1 [VNI, (R)-N-(1-(2,4-dichlorophenyl)-2-(1H-imidazol-1-yl)ethyl)-4-(5-phenyl-1,3,4-oxadiazol-2-yl)benzamide]
Chagas disease
  cure of Chagas disease in mice: cure both the acute and chronic forms
